Results published in US5665714A, “N-substituted glycerophosphoethanolamines” (Clarion Pharmaceuticals Inc., priority 1996, dated 1997).

Tests used:
tumor = settings: Andreesen, Prog. Biochem. Pharmacol. 22, 118-131; cited from earlier work
[1] = tested on: MDA-MB-231 estrogen receptor negative human breast carcinoma cell line; assay: in vitro MDA-MB-231 cell inhibition assay (anti-tumor/antineoplastic activity, sulforhodamine B); type: cell-based; settings: MDA-MB-231, 48 hours, 0 to 100 μM, FIG. 1, read-out: marked inhibition of cell growth at concentrations above
Description: FIG. 1 is a graphical representation of results from an in vitro MDA-MB-231 cell inhibition assay of two compounds of the invention, designated CPR 3003 and CPR 3004.
(§1) Assay for Anti-Tumor/Antineoplastic Activity
(§2) 1. Human tumor cell lines, available from the American Type Culture Collection (ATCC):
a. MDA-MB-231 (ATCC HTB 26): an estrogen receptor negative human breast carcinoma cell line (attachment dependent); and
a. for cell line 1-a: Dulbecco's Modified Eagle's Medium (DMEM) plus 10% Fetal Bovine Serum (FBS); and
(§3) 3. Standard protocol for culturing cell lines: in T-75 or T-150 flasks; 37° C.; 95% air, 5% CO2; 100% humidity.
(§4) a. Cell lines 1-a and 1-b are passaged when approximately 80% confluent; with trypsin (1 mg/mL) and EDTA (1 mM EDTA in Ca-Mg free Hank's balanced salt solution); at a 1:4 to 1:5 split.
b. […]
(§5) h. Read absorbance at 564 nm using a standard 96-well microtiter plate reader. Absorbance readings are linear with dye concentrations below 1.8 absorbance units. To reduce absorbance, decrease wavelength at which measurements are taken.
(§6) a. For a single point reading, a higher absorbance indicates a higher cell number; […]
(§7) d. Calculate CN (cell number as % of Control): [formula] where A(test compound) is absorbance with test compound present in the culture medium, A(control) is absorbance of control, and A(background) is absorbance of background;

[2] = tested on: HT-29 human colon carcinoma cell line; assay: in vitro HT 29 cell inhibition assay (anti-tumor/antineoplastic activity, sulforhodamine B); type: cell-based; settings: HT-29, 48 hours, 0 to 100 μM, FIG. 2, read-out: marked inhibition of cell growth at concentrations above
Description: FIG. 2 is a graphical representation of results from an in vitro HT 29 cell inhibition assay of two compounds of the invention, designated CPR 3003 and CPR 3004.
as §1, §2
b. HT-29 (ATCC HTB 38): a human colon carcinoma cell line (attachment dependent).
b. for cell line 1-b: 1:1 DMEM and Ham's F-12 (DMEM/F12) plus 10% FBS.
as §3, §4
b. All procedures are performed aseptically in a Class II biological safety cabinet using standard BL-2 containment procedures. […]
as §5, §6, §7

[3] = tested on: PAM-212 murine keratinocyte cell line; assay: Assay for anti-psoriatic activity by inhibition of keratinocyte proliferation (PAM-212); type: cell-based, murine (BALB/c mice); settings: Mus musculus, PAM212; PAM-212, 48 hours, FIG. 3; read-out: marked inhibition of keratinocyte-proliferation at concentrations above
Description: FIG. 3 is a graphical representation of results from an in vitro PAM-212 cell inhibition assay of two compounds of the invention, designated CPR 3003 and CPR 3004.
Assay for Anti-psoriatic Activity by Inhibition of Keratinocyte Proliferation
1. Cell line: PAM-212 murine keratinocyte cell line isolated and cultivated from newborn BALB/c mice (see S. H. Yuspa et al., Cancer Research, 40, 4694-4703, December, 1980) that appears to retain many characteristics of normal keratinocytes.
2. Culture medium: 1:1 DMEM and Ham's F-12 with 10% FBS.
3. Culture conditions are the same as those described previously in parts 3(a) and 3(b) of Example 9.
4. Methodology is the same as that described previously in part 4 of Example 9, except that, with reference to part 4 (b), cell concentration is adjusted to 1,000 cells per 100 μL (rather than 5,000 cells per 100 μL), and, with reference to part 4(e), test compounds are diluted in DMEM/F12 prior to addition to cell wells.
5. End point determination and data analysis are done as described previously in parts 5 and 6 of Example 9.

[4] = tested on: RAW 264.7 murine monocyte/macrophage line; assay: Assay for anti-inflammatory activity by inhibition of macrophage chemiluminescence (RAW 264.7, PMA, luminol); type: cell-based; settings: 1 minute
Description: FIG. 4 is a graphical representation of results from an in vitro RAW 264.7 cell macrophage inhibition chemiluminescence assay of two compounds of the invention, designated CPR 3003 and CPR 3004.
Assay for Anti-inflammatory Activity by Inhibition of Macrophage Chemiluminescence
The RAW 264.7 cell line (available from the ATCC under accession no. TIB 71) is a murine monocyte/macrophage line the cells of which show many of the differentiative functions of a macrophage. Like macrophages, the cells are capable of phagocytosis and undergo a respiratory burst (increased oxygen consumption) and production of oxygen radicals (e.g., superoxide) in response to appropriate activation signals. Agents that inhibit the activation of these cells in vitro, so as to inhibit the respiratory burst and corresponding production of oxygen radicals associated with the activation, are therefore inhibitors of macrophage activation and critical steps in inflammatory processes. These agents are likely, then, to be anti-inflammatories.
The respiratory burst and corresponding production of oxygen radicals that accompany macrophage activation can be measured in a variety of ways, including chemiluminescence based on the reaction of the oxygen radicals with luminol added to the culture medium (see M. A. Trush et al, 1978, "The Generation of Chemiluminescence by Phagocytic Cells." Methods in Enzymology 57: 462-494). Indeed, chemiluminescence generated from luminol in the culture medium of macrophage cell lines is recognized in the art as a marker of macrophage activation.
1. Cell line: RAW 264.7 (ATCC TIB 71);
2. Culture medium: DMEM with 10% FBS (attachment dependent);
3. Standard protocol for culturing cell lines: in T-75 or T-150 flasks; 37° C.; 95% air, 5% CO2; 100% humidity;
4. Cell lines are passaged when approximately 80% confluent with trypsin (1 mg/mL) and EDTA ([…] in Ca-Mg free Hank's balanced salt solution), at a 1:4 to 1:5 split;
5. Trypsinize the cells and count with a hemocytometer;
6. Adjust concentration of cells to approximately 1,000,000 cells per mL;
7. Suspend cells in DMEM lacking phenol red and without FBS;
8. Pipette 1 mL, into a standard luminometer cuvet (12×75), commercially available from Analytical Luminescence Laboratories (San Diego, Calif.);
9. Add luminol to final concentration of 1 μM;
10. Add test compound at concentrations of 0, 1, 3, 10, or 30 μM;
11. Add 100 nanograms of phorbol myristate acetate (PMA);
12. Wait 1 minute and read photo counts (i.e., luminescence) on a Monolight 2010 luminometer available from Analytical Luminescence Laboratories;
13. The results are represented in FIG. 4, which illustrates the marked decrease in measured luminescence by the compounds tested at concentrations above 1 μM. Results are calculated as percent of control (no test compound present);
14. The results are also presented in Table 1, which tabulates the measured luminescence units at the indicated concentration of tested compound.

[5] = tested on: PAF (Platelet Activating Factor)-induced increase in TPR (Total Pulmonary Resistance); assay: Assay for anti-PAF activity in anesthetized guinea pigs (PAF-induced increase in total pulmonary resistance); type: in vivo, guinea pig; settings: for PAF-induced increase in TPR, % of Controls: n = 5, PAF Control 112.2
Experimental: FIG. 5 is a graphical representation of results from an in vivo antagonism of PAF (Platelet Activating Factor)-induced increase in TPR (Total Pulmonary Resistance) by the compound of the invention, designated CPR 3003.
Assay for Anti-PAF Activity in Anesthetized Guinea Pigs
Guinea pigs of 650-1000 g were used in order to facilitate catheterization of the jugular vein and carotid artery. The guinea pigs were anesthetized with 35-45 mg/kg pentobarbital sodium. When or if the recordings described below were unstable, anesthetic additions were made during the course of the intervention. The cutdown was a ventral medial incision over the cervical area so that the trachea, jugular vein and carotid artery could be cannulated. The animals were immediately attached to a volume regulated Harvard® rodent respirator, Model 683, via a tracheostomy and the respirator was set at 60 respirations per minute and a volume of 8 ml/kg to maintain a normal arterial PCO2 of approximately 40 mm Hg. Pancuronium bromide, a muscle relaxant, was then given intravenously at a dose of 0.2 mg/kg to prevent spontaneous breathing. A tube was connected to the respirator pump and the endotracheal catheter was attached to a pressure-transducing strain gauge and then to a 2-channel Gilson® physiological recorder. One channel of the recorder inscribed the pressure tracing from the airway; the second channel inscribed the pressure tracing from a similar strain gauge attached directly to a catheter inserted into the carotid artery. These two parameters were measured before and after each drug was given and at each increment in the dose response studies with each drug candidate and recorded. Total pulmonary resistance (TPR) was calculated as the difference between the expiratory pressure and inspiratory pressures with a constant volume.
After the anesthetic and muscle relaxant were given, the animal was allowed to stabilize. The airway was gently suctioned with a syringe and the lungs are briefly inflated by closing the expiratory port on the ventilator until the pressure was approximately three times resting pressure. When the pressure returned to a steady state, this TPR was considered control pressure. The dose-related increases or decreases were quantitated against these controls to determine the percent inhibition of PAF activity. Two doses of PAF were given as controls before the test compound was administered.
Decreases of TPR in a dose-related way indicate an inhibition of the constrictor activity of PAF on the airway.

## CCCCCCCCCCCCCCCCCCOC[C@H](COP(=O)([O-])OCC[N+](C)(C)C)OC [ET 18-OCH3, 1-O-octadecyl-2-O-methyl-sn-glycero-3-phosphocholine]
tumor
  anti-tumor activity: markedly potent anti-tumor activity

## CCCCCCCCCCCCCCCCCCOCC(COP(=O)(O)OCCNC1=NCCN1)OC (stereo not shown) [CPR 3004, 1-O-n-octadecyl-2-O-methyl-glycero-3-phospho-N-(2-imidazolinyl)-ethanolamine]
[1]
  minimal effective concentration: > 3 µM
[2]
  minimal effective concentration: > 3 µM
[3]
  minimal effective concentration: > 10 µM
[4]; 1 μM test compound
  measured luminescence: 524,414 Luminescence Units
[4]; 3 μM test compound
  measured luminescence: 134,836 Luminescence Units
[4]; 10 μM test compound
  measured luminescence: 23,849 Luminescence Units
[4]; 30 μM test compound
  measured luminescence: 6,128 Luminescence Units

## CCCCCCCCCCCCCCCCCCOCC(COP(=O)(O)OCCNC1=NCCN1C1=NCCN1)OC (stereo not shown) [CPR 3003, 1-O-n-octadecyl-2-O-methyl-glycero-3-phospho-N-[3-(2-imidazolinyl)-2-imidazolinyl]-ethanolamine]
[1]
  minimal effective concentration: > 3 µM
[2]
  minimal effective concentration: > 3 µM
[3]
  minimal effective concentration: > 10 µM
[4]; 1 μM test compound
  measured luminescence: 2,051,640 Luminescence Units
[4]; 3 μM test compound
  measured luminescence: 755,617 Luminescence Units
[4]; 10 μM test compound
  measured luminescence: 224,213 Luminescence Units
[4]; 30 μM test compound
  measured luminescence: 18,228 Luminescence Units
[5]; 1 μM
  PAF-induced increase in TPR, % of Controls: 110 % of Controls
[5]; 10 μM
  PAF-induced increase in TPR, % of Controls: 7 % of Controls
[5]; .1 μM
  PAF-induced increase in TPR, % of Controls: 232.2 % of Controls
[5]; incremental doses of 0.1, 1, and 10 μM
  change of PAF-induced increase in TPR: change the PAF-induced increase in TPR in all animals
